In the NIST ThermoML archive (doi:10.1021/acs.jced.6b00120):
± gives the expanded uncertainty stated by the source.

Test: xn = mol fraction of the nth substance listed
Conditions: Gas, Buoyancy - hydrostatic balance with magnetic suspension - two sinkers, x1 = 0.05049

[Ar] [argon] + O=C=O
Conditions | mass density [kg/m3]
273.15 K, 526.54 kPa | 10.5097 ± 0.0037
273.15 K, 1045.7 kPa | 21.6518 ± 0.0059
273.15 K, 2054.6 kPa | 46.254 ± 0.011
273.15 K, 2521.6 kPa | 59.4639 ± 0.014
273.15 K, 2948.2 kPa | 72.995 ± 0.017
283.15 K, 487.17 kPa | 9.32016 ± 0.0035
283.15 K, 1034 kPa | 20.4562 ± 0.0056
283.15 K, 2045.6 kPa | 43.428 ± 0.01
283.15 K, 3054.1 kPa | 70.7119 ± 0.016
283.15 K, 4058.4 kPa | 105.393 ± 0.024
293.15 K, 501.22 kPa | 9.23865 ± 0.0035
293.15 K, 1009.9 kPa | 19.1313 ± 0.0053
293.15 K, 2033.5 kPa | 40.9568 ± 0.0097
293.15 K, 3031.1 kPa | 65.5032 ± 0.015
293.15 K, 4032.7 kPa | 95.0463 ± 0.022
293.15 K, 5045.2 kPa | 133.561 ± 0.031
293.15 K, 5530.5 kPa | 157.768 ± 0.038
308.15 K, 493.91 kPa | 8.62503 ± 0.0034
308.15 K, 996.02 kPa | 17.7876 ± 0.0051
308.15 K, 2002.5 kPa | 37.5504 ± 0.009
308.15 K, 3004.5 kPa | 59.5083 ± 0.013
308.15 K, 4005.8 kPa | 84.4871 ± 0.019
308.15 K, 5012.9 kPa | 113.924 ± 0.026
308.15 K, 6005.3 kPa | 149.364 ± 0.035
308.15 K, 6991.8 kPa | 195.441 ± 0.047
308.15 K, 7418.4 kPa | 221.117 ± 0.056
308.15 K, 7793.4 kPa | 248.529 ± 0.066
323.15 K, 521.21 kPa | 8.65936 ± 0.0034
323.15 K, 1030.2 kPa | 17.4463 ± 0.005
323.15 K, 2009.8 kPa | 35.3997 ± 0.0085
323.15 K, 3012.4 kPa | 55.4385 ± 0.013
323.15 K, 4030.3 kPa | 77.9178 ± 0.017
323.15 K, 5045.6 kPa | 103.062 ± 0.023
323.15 K, 6032.4 kPa | 130.908 ± 0.03
323.15 K, 7032.7 kPa | 163.762 ± 0.038
323.15 K, 8023.8 kPa | 202.754 ± 0.049
323.15 K, 8533.5 kPa | 226.233 ± 0.056
323.15 K, 8988 kPa | 249.635 ± 0.061
